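Protocol summary: plate cells (96-well), add compound at 5 concentrations, incubate 48 h, interpolate endpoints linearly. The concentration for 50% growth inhibition is given as GI50.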 Active and inactive are the calls of the source. Rule as the data show it: active = GI50 up to about 1.1 µM and inactive = higher.
What was measured:
Test in all cases: NCI-60 cell line screen, 48 h
[1] = test system: NCI-H460
[2] = test system: SF-539
[3] = test system: UACC-62
[4] = test system: DLD-1
[5] = test system: DMS-273
[6] = test system: SNB-78
[7] = test system: UACC-257
[8] = test system: DMS-114
[9] = test system: ACHN
[10] = test system: IGROV-1
[11] = test system: U-251
[12] = test system: SK-OV-3
[13] = test system: HOP-92
[14] = test system: KM-20L2
[15] = test system: SF-268
[16] = test system: SK-MEL-2

Measured: GI50

O=C(CC1C(=O)Nc2ccccc2[S+]1[O-])Nc1ccccc1 (centres undefined)
inactive: [1] > 100 µM | [2] 52.7 µM | [3] > 100 µM | [4] > 100 µM | [5] > 100 µM | [6] > 100 µM | [7] > 100 µM | [8] > 100 µM | [9] 59.7 µM | [10] > 100 µM | [11] > 100 µM | [12] 26.9 µM | [13] 53.8 µM | [14] > 100 µM | [15] > 100 µM | [16] > 100 µM

Cc1c(CCO)c(O)n2c(nc3ccccc32)c1C#N
inactive: [1] 26.7 µM | [2] > 100 µM | [3] > 100 µM | [4] > 100 µM | [5] 63.2 µM | [6] 61 µM | [7] > 100 µM | [8] 44.5 µM | [9] > 100 µM | [10] 68.4 µM | [11] 46.1 µM | [12] > 100 µM | [13] 33.1 µM | [14] 66.5 µM | [15] > 100 µM | [16] 91.6 µM

O=C(Cc1nc2ccccc2s1)C(=O)Nc1cccc(C(F)(F)F)c1
inactive: [1] > 100 µM | [2] > 100 µM | [3] > 100 µM | [4] > 100 µM | [5] > 100 µM | [6] > 100 µM | [7] > 100 µM | [8] > 100 µM | [9] > 100 µM | [10] > 100 µM | [11] > 100 µM | [12] > 100 µM | [13] > 100 µM | [14] > 100 µM | [15] > 100 µM | [16] > 100 µM

NC(=S)NNC(=O)CCC(=O)Nc1ccc(Cl)cc1Cl
inactive: [1] > 100 µM | [2] > 100 µM | [3] 29.9 µM | [4] > 100 µM | [5] 38.7 µM | [6] > 100 µM | [7] > 100 µM | [8] 41.7 µM | [9] > 100 µM | [10] > 100 µM | [11] > 100 µM | [12] > 100 µM | [13] > 100 µM | [14] > 100 µM | [15] > 100 µM | [16] 42.9 µM
